# Experimental data from PubChem BioAssay AID1996.
# Settings: buffer; pH 7.4; 200.0 µM
row,SMILES,solubility kinetic
1,CC1CN(C(=O)c2ccccc2NS(=O)(=O)c2ccc(Cl)cc2)CC(C)O1 (centres undefined),> 61.3 µg/mL
2,Cc1ccc(S(=O)(=O)NCCC2=CCCCC2)cc1C(N)=O,> 48.4 µg/mL
3,Cc1snc(SCc2cccc(Cl)c2)c1C#N,< 0.3 µg/mL
4,Cc1cc(N/C=C(\C#N)S(=O)(=O)c2ccccc2Cl)nc(C)n1,39.5 µg/mL
5,CCOc1cc(N2CCOCC2)c(OCC)cc1NC(=O)COC(=O)c1ccc(Cl)nc1,5.2 µg/mL
6,Cc1ccccc1NC(=O)COC(=O)c1cc[n+]([O-])cc1,> 42.9 µg/mL
7,CCC(Oc1ccccc1F)C(=O)NCCN1CCOCC1 (centres undefined),44.3 µg/mL
8,Nc1ncncc1-c1ccc(Cl)cc1,> 30.8 µg/mL
9,COc1ccccc1/C=C/C(=O)NCCc1ccccn1,41.9 µg/mL
10,CCCCOc1ccc(OCCCN2CCOCC2)cc1.Cl,> 49.5 µg/mL
11,CC(=O)OC(C(=O)NC1CCCCC1)c1ccccc1Cl (centres undefined),39.1 µg/mL
12,O=C(Nc1cc(-c2nc3ncccc3o2)ccc1Cl)c1ccco1,4.4 µg/mL
13,CC(Oc1ccccc1)C(=O)OCC(=O)NC(=O)NC1CCCCC1 (centres undefined),47.7 µg/mL
14,COc1ccc(-c2csc3ncn(Cc4ccccc4)c(=O)c23)cc1,1.4 µg/mL
15,COc1ccc(C(=O)NCCCc2ccccc2)cc1OC,> 44.9 µg/mL
16,O=C(Nc1ccc2c(c1)OCCO2)c1cccc(Cl)c1Cl,35.5 µg/mL
17,COc1ccc(S(=O)(=O)N2CCN(CCc3ccccc3)CC2)cc1,1.5 µg/mL
18,CCOC(=O)C1=C(C)NC(=O)NC1/C=C\c1ccccc1 (centres undefined),1.3 µg/mL
19,CC(=O)c1cc(CN2CCN(CC=C(C)C)C(CCO)C2)cs1 (centres undefined),> 50.5 µg/mL
20,COc1ccc(CCNCc2ccc(C)s2)cc1OC.Cl,> 49.2 µg/mL

row,SMILES,solubility kinetic
1,O=C(COC(=O)c1ccccc1O)Nc1ccc2ccccc2c1,6.2 µg/mL
2,Cc1c(Cl)cccc1NC(=O)CNC(=O)c1ccc2c(c1)OCCO2,18 µg/mL
3,CCOC(=O)CNC(=O)c1cccnc1Oc1ccc(Cl)cc1,20.2 µg/mL
4,Cc1ccsc1C(=O)OCc1nc2ccsc2c(=O)[nH]1,> 46 µg/mL
5,C=CCNc1oc(-c2cccs2)nc1S(=O)(=O)c1ccccc1,16.8 µg/mL
6,O=C(Nc1cccc2ncccc12)c1ccc(OCc2ccccc2)cc1,< 0.4 µg/mL
7,Cc1cccc(C)c1NC(=S)N1CCCCCC1,> 39.4 µg/mL
8,NC(=S)Nc1cc(Cl)cc(Cl)c1,33 µg/mL
9,COC(=O)c1ccc(COC(=O)C2CCN(S(=O)(=O)c3ccccc3C(=O)OC)CC2)cc1,11 µg/mL
10,CC(SCC(=O)Nc1ccccc1Br)c1nc2ccccc2c(=O)[nH]1 (centres undefined),3.2 µg/mL
11,CCC(=O)N(Cc1cc(=O)[nH]c2ccccc12)c1ccc(OC)cc1,47.1 µg/mL
12,CC1CCCCN1C(=O)CCS(=O)(=O)c1cccc2nonc12 (centres undefined),41.8 µg/mL
13,COc1cccc(C2NC(=O)CCC2[N+](=O)[O-])c1OC (centres undefined),39.4 µg/mL
14,CC(=O)N[C@@H](Cc1ccc(OC(F)(F)F)cc1)C(=O)O,> 43.7 µg/mL
15,O=C(Nc1ccc(S(=O)(=O)Nc2ccccc2)cc1)C1CC1,12.6 µg/mL
16,CCC(=O)Nc1ccc2c(c1)Cc1cc(NC(=O)CC)ccc1-2,0.5 µg/mL
17,O=c1[nH]c2ccc(NCc3ccc(F)cc3)cc2[nH]1,35.9 µg/mL
18,COc1ccc(-c2nc(C)ncc2-c2ccc(Cl)cc2)c(O)c1,< 0.3 µg/mL
19,O=S(=O)(CC(c1ccccc1)N1CCCCC1)c1ccc(Cl)cc1 (centres undefined),4.2 µg/mL
20,O=C(CN1c2cccc3cccc(c23)S1(=O)=O)Nc1ccccc1,0.4 µg/mL

row,SMILES,solubility kinetic
1,CC(CN1CCCCC1)OC(=O)COc1ccc(Cl)cc1.Cl (centres undefined),> 52.2 µg/mL
2,Cc1ccc(NS(=O)(=O)c2cc(N)ccc2Cl)c(C)c1,43.5 µg/mL
3,O=C(CCc1nc(-c2ccccc2Cl)no1)NCC1CCCO1 (centres undefined),47.7 µg/mL
4,O=C(CCCn1cnc2ccccc2c1=O)Nc1ccccc1F,20.2 µg/mL
5,N#Cc1ccc(COc2cccnc2[N+](=O)[O-])cc1,6.3 µg/mL
6,CC(=O)c1cccc(OCC(O)CNCCOc2ccc(C)cc2)c1 (centres undefined),47.6 µg/mL
7,c1ccc(CO/N=C(\c2ccc(C3CC3)nc2)C2CC2)cc1,1.9 µg/mL
8,CCOC(=O)Cn1cc(C#N)c2cccc(CC)c21,35.3 µg/mL
9,O=C(c1c(F)c(F)c(F)c(F)c1F)N1CCN(Cc2ccc3c(c2)OCO3)CC1,2.3 µg/mL
10,Cc1ccc(C)c(-c2cc(C(=O)NC3CC3)c3ccccc3n2)c1,39.6 µg/mL
11,CCCCc1ccc(NC(=S)N2CCN(C)CC2)cc1,> 43.7 µg/mL
12,O=C(Nc1ccc(CN2CCOCC2)cc1)c1ccc(F)cc1,> 47.2 µg/mL
13,CC(C)=CCN1CCN(Cc2cc3ccccc3[nH]2)CC1CCO (centres undefined),45.8 µg/mL
14,CC1Sc2ccc(C(=O)NCc3ccccc3Cl)cc2NC1=O (centres undefined),4.1 µg/mL
15,Cl.O=C(O)CC1(CC(=O)N2CCN(CCO)CC2)CCCC1,> 50.2 µg/mL
16,Cc1ccc(S(=O)(=O)NCCCN2CCCC2)cc1,> 42.4 µg/mL
17,CCc1ccccc1NC(=O)CC(NCc1ccccc1)C(=O)O (centres undefined),> 49 µg/mL
18,COc1ccc(CNC(=O)COC(=O)c2ccc(S(=O)(=O)NCc3ccco3)cc2)cc1,8 µg/mL
19,Cl.N=C(c1ccc([N+](=O)[O-])cc1)N1CCCCCC1,> 42.6 µg/mL
